Our source for the IC50 values is PubChem BioAssay AID504839 (Johns Hopkins Ion Channel Center, 2011).

One may read the IC50 as the concentration at which inhibition is half-maximal.

This assay deals with Potassium voltage-gated channel subfamily KQT member 2 (Rattus norvegicus) (UniProt O88943). The assay can be described thus: PubChem AID 504839. The conditions noted are these: KCNQ2-CHO cells, automated patch clamp current. (Patch clamp records ionic current or voltage across a cell membrane.)
Chain of Potassium voltage-gated channel subfamily KQT member 2 (Rattus norvegicus) (O88943 whole entry, looked up): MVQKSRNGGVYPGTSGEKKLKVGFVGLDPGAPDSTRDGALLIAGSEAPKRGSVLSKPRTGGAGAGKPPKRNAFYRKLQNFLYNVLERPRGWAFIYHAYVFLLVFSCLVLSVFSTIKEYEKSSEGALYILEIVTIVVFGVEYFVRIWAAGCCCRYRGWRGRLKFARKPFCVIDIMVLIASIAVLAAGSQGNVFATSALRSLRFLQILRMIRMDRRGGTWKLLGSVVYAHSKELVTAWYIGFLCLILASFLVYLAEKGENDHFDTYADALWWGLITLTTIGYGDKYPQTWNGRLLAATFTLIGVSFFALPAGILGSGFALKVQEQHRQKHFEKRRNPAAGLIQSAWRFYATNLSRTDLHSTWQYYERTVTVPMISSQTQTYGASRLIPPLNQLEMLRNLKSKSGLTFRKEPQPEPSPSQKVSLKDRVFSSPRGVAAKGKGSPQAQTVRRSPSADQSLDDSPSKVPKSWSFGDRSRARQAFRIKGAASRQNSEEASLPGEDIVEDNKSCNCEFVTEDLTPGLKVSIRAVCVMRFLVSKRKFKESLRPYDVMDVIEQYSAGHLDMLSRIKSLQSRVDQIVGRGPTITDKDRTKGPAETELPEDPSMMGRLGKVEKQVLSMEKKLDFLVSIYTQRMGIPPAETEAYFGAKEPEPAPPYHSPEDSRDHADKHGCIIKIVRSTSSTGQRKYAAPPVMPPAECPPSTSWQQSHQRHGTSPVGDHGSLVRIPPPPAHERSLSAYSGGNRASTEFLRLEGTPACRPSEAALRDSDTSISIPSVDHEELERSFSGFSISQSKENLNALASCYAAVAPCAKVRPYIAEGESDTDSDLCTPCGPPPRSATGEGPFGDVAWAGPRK

With `CCC(C(=O)Nc1ccccc1N1CCCC1)c1ccccc1` (stereo unspecified), the IC50 was 160 nM.
